In patent EP4635969A1, “NOVEL GLUCOCORTICOID, METHOD FOR PREPARING SAME, AND USE THEREOF” (Tianjin Pharmaceutical Biotechnology Co., Ltd., priority 2022, dated 2024):
Read-outs that look alike come from different tables or passages of the source.

Experiments:
[1] = target: T1, glucocorticoid receptor (GR) (Homo sapiens, UniProt P04150); assay: Assay for agonist activity on glucocorticoid receptor (luciferase reporter, HEK293 cells transfected with pBIND-GR plasmid); type: cell-based
T1 sequence (P04150 521-777): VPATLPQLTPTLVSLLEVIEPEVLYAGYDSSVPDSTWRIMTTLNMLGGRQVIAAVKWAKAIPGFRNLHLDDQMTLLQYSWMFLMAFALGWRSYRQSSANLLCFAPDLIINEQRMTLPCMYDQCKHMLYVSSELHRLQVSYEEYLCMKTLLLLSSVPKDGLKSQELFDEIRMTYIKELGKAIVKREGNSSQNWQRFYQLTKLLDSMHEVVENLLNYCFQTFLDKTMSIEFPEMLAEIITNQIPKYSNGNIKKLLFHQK
How it was run: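 HEK293 cells transfected with pBIND-GR, seeded in phenol red-free DMEM with 5% charcoal-stripped serum, then exposed to compounds in a 10-point, 4-fold dilution series from 10 µM, in duplicate. Luciferase luminescence read after incubation; EC50 from nonlinear fit. Vehicle blank: 0.1% DMSO.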

[2] = Stability in animal lung tissue homogenate, skin tissue homogenate and aqueous humor; type: in vitro ADME
[3] = system: inflammatory cytokines (TNF-α); assay: Anti-uveitis pharmacodynamic experiment (LPS model): inflammatory cytokines in aqueous humor (ELISA); type: in vivo, male SD rats; conditions: values not given
How it was run: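 Male SD rats given uveitis by single subplantar injection of LPS (Salmonella) 1 mg/kg, then bilateral ocular dosing of 40 µL 5 mg/5 mL ophthalmic suspension three times daily for 2 days.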

uveitis model rats = assay: Anti-uveitis pharmacodynamic experiment (LPS model): ocular pathological score; type: in vivo, male SD rats; conditions: compared with the model group
[4] = system: dry eye syndrome model New Zealand rabbits; assay: Dry eye syndrome experiment (benzalkonium chloride model): corneal fluorescein sodium staining; type: in vivo, male New Zealand White rabbits; conditions: compared with the model group
Procedure: Pharmacological Example 6: Therapeutic Pharmacodynamic Experiment on Dry Eye Syndrome in New Zealand Rabbits
Positive control drug: Fluorometholone Eye Drops (specification: 5 mL/5 mg; Santen Pharmaceutical (CHINA) Co., Ltd.; Lot No.: 1FM6625) was used as the positive control drug and stored at room temperature protected from light until use.
Thirty male New Zealand White rabbits (conventional grade) were prepared. Six rabbits were randomly selected as the blank control group, and the remaining animals were administered 0.1% benzalkonium chloride to the left eye twice daily (morning and evening) , 10 µL/animal each time. […] During the administration, all animals except the blank control group were administered 10 µL of 0.1% benzalkonium chloride to the left eye once daily to maintain dry eye symptoms..
• Test time: D3, D7, D15; • Test animals: All animals were tested before grouping; all enrolled surviving animals were tested after administration; • Test method: 2 µL of 1% Fluorescein sodium was dropped into the conjunctival sac. After 5 s, the excess fluorescein was rinsed with 0.9% normal saline. The conjunctival staining was observed under a slit lamp with cobalt blue diffused light.
The normality and homogeneity of variance were tested by Levene's test. If there was no statistical significance (P > 0.05), one-way analysis of variance (ANOVA) was used for statistical analysis. If ANOVA was statistically significant (P ≤ 0.05), LSD test (parametric method) was used for comparative analysis. If the variance was heterogeneous (P ≤ 0.05), Kruskal-Wallis test was used. If the Kruskal-Wallis test was statistically significant (P ≤ 0.05), Dunnett's test (nonparametric method) was used for comparative analysis.

[5] = system: dry eye syndrome model New Zealand rabbits; assay: Dry eye syndrome experiment (benzalkonium chloride model): tear film break-up time; type: in vivo, male New Zealand White rabbits; conditions: compared with the model group
[6] = system: intraocular pressure of guinea pigs; assay: Adverse reactions of continuous ocular administration: intraocular pressure; type: in vivo
How it was run: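 Guinea pigs (300-350 g, both sexes) dosed bilaterally with 5 mg/5 mL ophthalmic suspensions, saline as blank; intraocular pressure measured before dosing and on days 7, 14, 21 and 28.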

IL-17 = assay: Psoriasis experiment (imiquimod model): inflammatory cytokine in serum (ELISA); type: in vivo, mice; conditions: for level of IL-17 / inflammatory cytokines in psoriasis model mice: compared with the model group
Procedure: Positive control drug: Fluticasone Propionate Cream (specification: 0.05% × 15 g, Zhejiang Xianju Pharmaceutical Co. Ltd., Lot No. 211106), stored at room temperature protected from light until use.
Adult mice were selected, and the skin of 2 cm × 3 cm on the back of mice was locally depilated. The mice in the model group and drug administration group were applied with 62.5 mg of 5% imiquimod cream on their back for modeling, while the mice in the blank control group were applied with medical petroleum jelly on their back daily. The above procedures were performed once a day for 7 consecutive days.
The mice in the drug administration group were applied with the corresponding drugs on their backs daily at a dose of 0.2 g per mouse, while the blank control group and the model group were only applied with 0.2 g of the test sample drug matrix. One hour after drug administration, the drugs were wiped off with sterile cotton swabs, followed by the application of imiquimod. The above procedures were performed once a day for 7 consecutive days.
After the PASI scoring on day 8 of modeling, blood was collected from the orbital sinus of mice and centrifuged at 3000 rpm for 10 min. The supernatant was extracted to measure the level of IL-17. All procedures were performed following the instructions of the ELISA kit.
Statistical analysis was performed using SPSS software, and the results were expressed as mean ± standard deviation. One-way ANOVA was used for intergroup comparisons. For data with homogeneous variance, the LSD test was used; for data with heterogeneous variance, the Dunnett-t test was used. A value of P < 0.05 was considered statistically significant.

[7] = system: inflammatory cytokines IL-6 and IL-12; assay: Anti-asthma pharmacodynamic experiment: inflammatory cytokines in bronchoalveolar lavage fluid (ELISA); type: in vivo, female BALB/c mice; conditions: compared with the model group
Procedure: Pharmacological Example 4: Pharmacodynamic Experiment on Anti-Asthma
The suspensions were stored at room temperature protected from light until use.
Positive control drug: Budesonide Suspension for Inhalation (specification: 2 mL: 1 mg; AstraZeneca Inc.; Lot No. : 327392) was diluted with injection-grade sodium chloride solution to 0.3 mg/ml as the positive control drug, and stored at room temperature protected from light until use.
Sixty female BALB/c mice underwent a one-week adaptive feeding period. Ten mice were randomly selected as the blank control group, while 50 mice were selected to establish asthma models.
From days 21 to 23 after sensitization, the mice in the model group and drug administration group were exposed to a 30-minute aerosol challenge with 5% OVA, while the mice in the blank control group were exposed to normal saline aerosol for the same duration.
At the end of airway hyperresponsiveness testing in mice, the mice were euthanized by cervical dislocation and fixed on a dissection tray. The abdomens and thoracic cavities of the mice were opened, and the skin and excess tissues of the neck were excised to expose the trachea of the mice. A small incision was made transversely on the trachea with a small scissors. A pre-treated 1 mL syringe needle was inserted and fastened with surgical thread. A 1 mL syringe was used to slowly inject 0.5 mL of pre-chilled phosphate-buffered saline (PBS) into the lungs of the mice, followed by slow aspiration. Each mouse was lavaged once, and a total of approximately 0.4 ml of lavage fluid was collected. The bronchoalveolar lavage fluid was centrifuged at 3000 rpm for 5 min. After centrifugation, the supernatant was aliquoted, and the levels of inflammatory cytokines IL-6 and IL-12 in the bronchoalveolar lavage fluid were determined using ELISA kits.
Statistical analysis was performed using SPSS software. Measurement data were expressed as mean ± standard deviation. One-way ANOVA was used for intergroup comparisons. For data with homogeneous variance, LSD test was used; for data with heterogeneous variance, Dunnett-t test was used. A value of P < 0.05 was considered statistically significant.

[8] = GR agonist EC50 (nM), HEK293 cells transfected with pBIND-GR, luciferase signal

Row | SMILES | EC50 [1, 8] [nM] | EC50 ([1]; Nuclear receptor enzyme activity (nM) GR, EC50 of agonist activity, HEK293 reporter cells) [nM] | stability in animal lung tissue homogenate, skin tissue homogenate, and aqueous humor [2] | inflammatory cytokines in aqueous humor [3] | ocular abnormalities / ocular pathological score (uveitis model rats) | inflammatory response on the ocular surface / ocular symptoms [4] | tear film break-up time [5] | intraocular pressure after continuous ocular administration [6] | level of IL-17 / inflammatory cytokines in psoriasis model mice (IL-17) | Effects on inflammatory cytokines in bronchoalveolar lavage fluid of mice [7] | EC50 ([1]; EC50 of agonist activity, HEK293 reporter cells, read-out: Nuclear receptor enzyme activity (nM) GR) [nM] | EC50 ([1]; HEK293 cells transfected with pBIND-GR, luciferase signal, read-out: GR agonist EC50) [nM] | Intraocular pressure of guinea pigs (mmHg) D0 ([6]; D0, before administration, 50 µL/eye (compounds and fluorometholone 1 mg/mL, loteprednol 5 mg/mL)) [mmHg] | Intraocular pressure of guinea pigs (mmHg) D7 ([6]; D7, 50 µL/eye (compounds and fluorometholone 1 mg/mL, loteprednol 5 mg/mL)) [mmHg] | Intraocular pressure of guinea pigs (mmHg) D14 ([6]; D14, 50 µL/eye (compounds and fluorometholone 1 mg/mL, loteprednol 5 mg/mL)) [mmHg] | Intraocular pressure of guinea pigs (mmHg) D21 ([6]; D21, 50 µL/eye (compounds and fluorometholone 1 mg/mL, loteprednol 5 mg/mL)) [mmHg] | Intraocular pressure of guinea pigs (mmHg) D28 ([6]; D28, 50 µL/eye (compounds and fluorometholone 1 mg/mL, loteprednol 5 mg/mL)) [mmHg] | IL-17 (IL-17; serum, day 8 of modeling, 0.2 g cream per mouse daily for 7 days) [pg/mL]
1 | C[C@]12C=CC(=O)C=C1CC[C@H]1[C@@H]3C[C@H]4OC(c5ccc(COC6CCOC6=O)cc5)O[C@@]4(C(=O)CO)[C@@]3(C)C[C@H](O)[C@@]12Cl (stereo partly drawn) [Compound 22, (6aS,6bR,7S,8aS,8bS,11aR,12aS,12bS)-6b-Chloro-7-hydroxy-8b-(2-hydroxyacetyl)-6a,8a-dimethyl-10-(4-(((2-oxotetrahydrofuran-3-yl)oxy)methyl)phenyl)-1,2,6a,6b,7,8,8a,8b,11a,12,12a,12b-do decahydro-4H-naphtho[2',1':4,5]indeno[1,2-d][1,3]dioxol-4-one] | 0.55 | 0.55 | relatively stable | suppressed inflammatory cytokines in aqueous humor | significantly improved ocular abnormalities | significantly alleviated the ocular symptoms in dry eye syndrome model New Zealand rabbits | significantly increased the tear film break-up time | no abnormal intraocular pressure observed | significantly inhibited inflammatory cytokines in the skin of psoriasis model mice | pharmacological effects similar to those of compound 23 | – | – | – | – | – | – | – | –
2 | C[C@]12C=CC(=O)C=C1CC[C@H]1[C@@H]3C[C@H]4OC(c5ccc(CSC6CCOC6=O)cc5)O[C@@]4(C(=O)CO)[C@@]3(C)C[C@H](O)[C@@]12F (stereo partly drawn) [Compound 17, (6aS,6bR,7S,8aS,8bS,11aR,12aS,12bS)-6b-Fluoro-7-hydroxy-8b-(2-hydroxyacetyl)-6a,8a-dimethyl-10-(4-(((2-oxotetrahydrofuran-3-yl)thio)methyl)phenyl)-1,2,6a,6b,7,8,8a,8b,11a,12,12a,12b-do decahydro-4H-naphtho[2',1':4,5]indeno[1,2-d][1,3]dioxol-4-one] | – | – | relatively stable | suppressed inflammatory cytokines in aqueous humor | significantly improved ocular abnormalities | significantly alleviated the ocular symptoms in dry eye syndrome model New Zealand rabbits | significantly increased the tear film break-up time | no abnormal intraocular pressure was observed | significantly decreased the level of IL-17 | pharmacological effects similar to those of compound 23 | 0.3 | 0.3 | 13.5 ± 0.6 | 16.0 ± 1.4 | 14.5 ± 1.9 | 13.3 ± 2.5 | 14.3 ± 1.5 | 31.30 ± 14.99
3 | C[C@]12C=CC(=O)C=C1CC[C@H]1[C@@H]3C[C@H]4OC(c5ccc(CSC6CCOC6=O)nc5)O[C@@]4(C(=O)CO)[C@@]3(C)C[C@H](O)[C@@]12Cl (stereo partly drawn) [Compound 48, (6aS,6bR,7S,8aS,8bS,11aR,12aS,12bS)-6b-Chloro-7-hydroxy-8b-(2-hydroxyacetyl)-6a,8a-dimethyl-10-(6-(((2-oxotetrahydrofuran-3-yl)thio)methyl)pyridin-3-yl)-1,2,6a,6b,7,8,8a,8b,11a,12,12a,12 b-dodecahydro-4H-naphtho[2',1':4,5]indeno[1,2-d][1,3]dioxol-4-one] | 0.37 | – | relatively stable | suppressed inflammatory cytokines in aqueous humor | significantly improved ocular abnormalities | significantly alleviated the ocular symptoms in dry eye syndrome model New Zealand rabbits | significantly increased the tear film break-up time | no abnormal intraocular pressure observed | significantly inhibited inflammatory cytokines in the skin of psoriasis model mice | pharmacological effects similar to those of compound 23 | – | – | – | – | – | – | – | –
